{"source": "patent US20100233131A1", "about": "(PUSAN NATIONAL UNIVERSITY INDUSTRY-UNIVERSITY COOP, priority 2008, published 2010)", "assay_type_in_all_cases": "cell-based, human", "key": {"ATSCs [1]": {"test_system": "ATSCs", "experiment": "Colony forming unit (CFU) assay", "conditions": "5 ng/ml selenium 3 days, colonies counted after 15 days, vs control ATSCs", "description": "Also, the proliferation efficiency of colony forming units (CFU) in the selenium-treated cells was evaluated. […] First, the ATSCs were seeded in 10 cm dishes at a density of 5×10^5 and cultured in a 2% FBS-containing α-MEM medium for 8 hours at 37° C. in a CO2 incubator. […] After 15 days, the cells were fixed with 4% paraformaldehyde (PFA) for 30 minutes at room temperature and stained with 0.1% toluidine blue dissolved in 1% PFA. The proliferation efficiency of the CFU was evaluated via visual colony counts."}, "ATSCs [2]": {"test_system": "ATSCs", "experiment": "Telomerase activity of selenium-treated ATSCs", "conditions": "5 ng/ml selenium for 3 days", "description": "An increase in telomerase activity is a characteristic of a stem cell, and a decrease in telomerase activity indicates differentiation of the cells."}, "ATSCs [3]": {"test_system": "ATSCs", "experiment": "Prolonged culture / proliferation lifespan", "description": "During prolonged culture periods, the population of control ATSCs underwent a progressive reduction in proliferation potential. The cells finally underwent senescence after 21 to 23 passages (90 to 100 days in culture). At the end of the proliferation lifespan, the cells were flattered and larger in morphology in a monolayer similar to that described for senescent fibroblasts. […] The rate of proliferation of selenium-treated ATSCs resembled that of the control ATSCs."}, "ATSCs [4]": {"test_system": "ATSCs", "experiment": "Molecular marker expression by real time RT-PCR and Western blot", "description": "The expression of molecular markers in both the control ATSCs and the selenium-treated cells was verified via real time RT-PCR and Western blot analysis."}, "ATSCs [5]": {"test_system": "ATSCs", "experiment": "Western blot of proliferation-related signaling proteins", "conditions": "time-dependent"}, "ATSCs [6]": {"test_system": "ATSCs", "experiment": "ROS generation (DCF fluorescence)"}, "ATSCs [7]": {"test_system": "ATSCs", "experiment": "Oligonucleotide microarray analysis of gene expression", "conditions": "vs control ATSCs", "description": "To confirm the pattern of gene expression, oligonucleotide microarray analysis was performed."}, "[8]": {"test_system": "Rex1, Nanog and Oct4 promoter regions", "experiment": "Bisulfite sequencing of CpG methylation on stemness gene promoter regions", "description": "Also, a bisullipide sequencing analysis was performed in order to establish 5′-3′ CpG methylation profiles across a proximal promoter, a proximal enhancer and an early transcription start site (TSS) of each gene.\nGenomic DNA of ATSCs was purified by phenol/chloroform/isoamylalcohol extraction, and chloroform extraction once, and then was precipitated with ethanol. The DNA was dissolved in distilled water. Bisullipide conversion was performed using EZ DNA Methylation-Gold Kit (Zymo Research, USA), as described by a manufacturer. That is, unmethylated cytosines on the DNA were converted into uracils via the heat-denaturation of DNA with specifically designed CT conversion reagent. The DNA was then desulphonated and subsequently cleaned and eluted. The bisulfite-modified DNA was then immediately used for PCR or stored at −20° C. or below. The converted DNA was amplified via PCR using primers designed with MethPrimer (http://www.urogene.org/methprimer). The PRC was conducted in a MyGenie 96 Gradient Thermal Block (Bioneer, Daejeon, South Korea) according to the following protocol, including 95° C. for 15 minutes, 40 cycles of 95° C. for 20 seconds, 43 to 58° C. for 40 seconds, and 72° C. for 30 seconds, elongation at 72° C. for 10 minutes and soaking at 4° C. After electrophoresis on 1.5% agarose gel, the remaining PCR products were cloned into bacteria (DH5α) by the pGEM T-Easy Vector System I (Promega, Madison, Wis., USA). The DNA extracted from bacterial clones were analyzed via sequencing with M13 reverse primers using the ABI 3730XL capillary DNA sequencer (Applied Biosystems, Foster City, Calif., USA), and represented as rows of circles, each circle denoting the methylation status of CpG."}, "ATSCs [9]": {"test_system": "ATSCs", "experiment": "Cell scraped wound model assay", "description": "Cells were seeded into 60 mm culture dishes, and a straight line was lightly carved across the center, outer and bottom surface of each dish with a scalpel. The ATSCs were incubated overnight in a serum-free medium, scraped from one side of the marked line, and washed three times with a medium to remove loose or dead cells. […] The control dish was also scratched in the same manner as described above, and incubated in a selenium-free medium. Cells migrated across the marked reference line were photographed under a phase contrast microscope."}, "ATSCs [10]": {"test_system": "ATSCs", "experiment": "Osteogenic and adipogenic differentiation in vitro", "description": "To estimate the differentiation potential of selenium-treated ATSCs, osteogenic and adipogenic differentiation potential was evaluated.\nIn the present embodiment, it was confirmed that the selenium-treated ATSCs accumulated significant amounts of calcium and lipid droplets after only one week of osteogenetic and adipogenetic induction in vitro (FIG. 17). Differences in formation of bone nodules and lipid droplets between the control and selenium-treated ATSCs were estimated by calculating the number of stained bone nodules and lipid droplets in 25 randomly selected fields (regions)."}, "ATSCs [11]": {"test_system": "ATSCs", "experiment": "Neural differentiation in vitro", "description": "In an attempt to estimate differentiation potential of selenium-treated ATSCs into neural cells in vitro, low levels of Nestin protein expression were detected in the selenium-treated ATSCs after the induction of differentiation (FIG. 19). After neural differentiation, the selenium-treated ATSCs expressed higher levels of Tuj, GFAP, MAP2ab and NF160 than the control ATSCs (FIG. 19). […] It means that there is a difference in differential potential between the control ATSCs and the selenium-treated ATSCs."}, "ATSCs [12]": {"test_system": "ATSCs", "experiment": "Differentiation into insulin-producing cells", "conditions": "after beta-cell-like differentiation, vs differentiated control ATSCs", "description": "Moreover, for differentiation of cells similar to beta cells, cells were cultured in “N2 media-NA” containing DMEM/F12 (Gibco-Invitrogen) supplemented with 10 mM nicotinamide, ITS (1:50), B27 (1:50; Invitrogen) and 15% FBS. After 24-hour culture, the medium was changed with a high glucose (3500 mg/L)-containing differentiation medium for 2 weeks. After the induction of differentiation, double immunocytochemistry was conducted using insulin (1:800; Sigma) and c-peptide (1:100; Milipore) antibodies."}}}
{"smiles": "O=[Se]([O-])[O-].[Na+].[Na+]", "note": "[selenium, sodium selenite]", "values": [{"measurement": "cell proliferation increase by CFU levels", "setting": "ATSCs [1]", "value": "at least 1.8 times"}, {"measurement": "increase in telomerase activity", "setting": "ATSCs [2]", "value": 2, "unit": "fold"}, {"measurement": "passages of continuous growth", "setting": "ATSCs [3]", "value": "> 21", "unit": "passages"}, {"measurement": "duration of continuous growth", "setting": "ATSCs [3]; control ATSCs senescent after 21 to 23 passages", "value": "more than 3 months"}, {"measurement": "acetylation of Histones 3 and 4", "setting": "ATSCs [4]", "value": "attenuated"}, {"measurement": "expression of GFAP, Tuj, p53 and p21", "setting": "ATSCs [4]", "value": "downregulation"}, {"measurement": "expression of Nestin and c-Myc", "setting": "ATSCs [4]", "value": "induced expression"}, {"measurement": "Rex1 expression", "setting": "ATSCs [4]; vs control ATSCs", "value": "significantly increased"}, {"measurement": "expression of stemness and functional genes (Rex1, Nanog, Oct4, Sox2, Runx3, CDK1, CDK2, Nestin, VEGF, FGFR1)", "setting": "ATSCs [4]; vs control ATSCs", "value": "overexpression"}, {"measurement": "activation of PI3K and downstream mediators (p-Rac, p-c-Raf, p-MEK, p-ERK, p-Stat3, p-Akt)", "setting": "ATSCs [5]; 0, 3, 6 and 12 hours", "value": "significant activation"}, {"measurement": "concentration of apoptosis-related protein p-SAPK/JNK", "setting": "ATSCs [5]", "value": "reduced"}, {"measurement": "increased fluorescence intensity of DCF (ROS generation)", "setting": "ATSCs [6]", "value": "compensated"}, {"measurement": "upregulation of cell proliferation-associated genes", "setting": "ATSCs [7]", "value": 42, "unit": "%"}, {"measurement": "Nanog promoter methylation", "setting": "[8]; third region (-86 to +66) to the TSS", "value": "effectively demethylated"}, {"measurement": "Oct4 promoter CpG methylation", "setting": "[8]; third region, control ATSCs 65.7%", "value": 30.3, "unit": "%"}, {"measurement": "Rex1 region CpG methylation", "setting": "[8]; third region, control ATSCs 72.2%", "value": 42.2, "unit": "%"}, {"measurement": "migration of ATSCs across the reference line", "setting": "ATSCs [9]; 5 ng/ml selenium, 24 hours, vs control ATSCs", "value": "three times higher"}, {"measurement": "expression of migration-associated factors MMP1, MMP3, SDF1, VEGF and CXCR4", "setting": "ATSCs [9]; after selenium treatment", "value": "increases in expression"}, {"measurement": "lipid droplets vs control ATSCs", "setting": "ATSCs [10]; adipogenic induction, eluted dye quantitative assay", "value": "six-fold more"}, {"measurement": "level of osteonectin, RXR and osteopontin mRNA", "setting": "ATSCs [10]; during osteogenesis", "value": "significant increases"}, {"measurement": "levels of AP and PPAR-γ mRNAs", "setting": "ATSCs [10]; in adipogenesis", "value": "significant increases"}, {"measurement": "bone nodules vs control ATSCs", "setting": "ATSCs [10]; osteogenic induction, eluted dye quantitative assay", "value": "Five-fold more"}, {"measurement": "acetyl-histones 3 and 4 (Western blot)", "setting": "ATSCs [11]; after neural differentiation", "value": "overexpressed"}, {"measurement": "expression of Tuj, GFAP, MAP2ab and NF160", "setting": "ATSCs [11]; after neural differentiation, vs control ATSCs", "value": "higher levels"}, {"measurement": "neural differentiation (MAP2ab/total cells)", "setting": "ATSCs [11]; control ATSCs 2.4%", "value": "9.0 % of total cells"}, {"measurement": "insulin secretion with C-peptide", "setting": "ATSCs [12]", "value": "secreted a significant amount of insulin"}]}
